Measurements published in PubChem BioAssay AID1745844 (Carcinogenic Potency Database (CPDB), 2022).
The source made the active and inactive calls. How the calls were made is not given here.

Tested on: rodent lifetime carcinogenesis bioassay, tumor incidence TD50
Test: carcinogenic potency in animals, long-term in vivo studies, CPDB compilation (AID 1745844)

Row | SMILES | TD50 (mouse, strain B6C3F1, females, in drinking water, site: liver, lesion: several types, types named in the paper, dosed 80 weeks, study length 123 weeks) | carcinogen call (mouse, strain B6C3F1, females, in drinking water, site: lung, lesion: several types, types named in the paper, dosed 80 weeks, study length 123 weeks) | TD50 (mouse, strain B6C3F1, males, in drinking water, site: liver, lesion: several types, types named in the paper, dosed 80 weeks, study length 123 weeks) | carcinogen call (mouse, strain B6C3F1, males, in drinking water, site: lung, lesion: several types, types named in the paper, dosed 80 weeks, study length 123 weeks) | TD50 (mouse, strain BALB/cLacDp, females, in drinking water, site: all sites, lesion: lymphoma, dosed 80 weeks, study length 123 weeks) | carcinogen call (mouse, strain BALB/cLacDp, females, in drinking water, site: liver, lesion: hepatocellular adenoma, dosed 80 weeks, study length 123 weeks) | carcinogen call (mouse, strain BALB/cLacDp, females, in drinking water, site: lung, lesion: several types, types named in the paper, dosed 80 weeks, study length 123 weeks) | TD50 (rat, strain Fischer 344, males, by gavage, site: liver, lesion: hepatocellular carcinoma, dosed 50 weeks, study length 83 weeks) [mg/kg/day] | TD50 (rat, strain Fischer 344, males, by gavage, site: liver, lesion: several types, types named in the paper, dosed 50 weeks, study length 83 weeks) [mg/kg/day]
1 | CC(O)CN(C)c1ccc(NN)nn1 (centres undefined) | 503 mg/kg/day (inactive) | negative (inactive) | 922 mg/kg/day (inactive) | negative (inactive) | 408 mg/kg/day (inactive) | negative (inactive) | negative (inactive) | – | –
2 | CCC(CC)[N+](=O)[O-] | – | – | – | – | – | – | – | 3.05 | 2.37
